Here are results for 1 compound from US9464291B2, “Methods and compositions for the treatment of cancer” (University of South Alabama, priority 2012, dated 2016).

The test system of test [1] is c-jun (Ser 63, Ser 73, Thr 91, Thr 93). Particulars: A2780-CP70; 3-5 hr after cisplatin treatment; cited from earlier work.
Test [2] has the same test system. Description: c-jun protein phosphorylation, Western blot, A2780-CP70 cells. The class given is cell-based, human. The note with it: 72 hr observation. Here is the method: Protein levels for c-jun, c-fos, phosphorylated c-jun (Ser 63), phosphorylated c-jun (Ser 73), and phosphorylated c-jun (Thr 91, Thr 93) were tested in cytosolic, nuclear, and whole cell fractions at 0 hr, 6 hr, 24 hr, 48 hr, and 72 hr. Internal controls for cytosolic and nuclear fractions included α-tubulin and histone deacetylase 3.
Phosphorylation of c-jun in A2780-CP70 cells transfected with anti-GLI1 shRNA construct was assessed using Western blot analysis. Protein levels for c-jun, phosphorylated c-jun (Ser 63), phosphorylated c-jun (Ser 73), and phosphorylated c-jun (Thr 91, Thr 93) were examined at 0 hr, 6 hr, 24 hr, 48 hr, and 72 hr.
A2780-CP70 cells were treated with an IC50 dose of cisplatin and an IC50 dose of anti-Gli1 shRNA.

Test [3] relates to ERCC1, XPD, XRCC1. Description: ERCC1, XPD, XRCC1 mRNA / protein levels in A2780-CP70 cells. The format is cell-based, human.
The subject of test [4] is ERCC1, XPD, XRCC1. The note with it: cells treated with cisplatin only; cited from earlier work.
The subject of test [5] is c-jun. Description: c-jun mRNA (semi-quantitative PCR) and protein (Western blot) in A2780-CP70 cells. The class given is cell-based, human. Particulars: A2780-CP70. As for the experimental part: Controls included α-tubulin and histone deacetylase 3. C-jun antibody recognizes non-phosphorylated c-jun protein.
c-jun and c-fos mRNA expression was examined in A2780-CP70 cells transfected with anti-GLI1 shRNA construct at 6 hr, 24 hr, 48 hr, and 72 hr post-transfection using semi-quantative PCR analysis (FIG. 41).
A2780-CP70 cells were transfected with an IC50 dose of anti-Gli1 shRNA (treated) construct or vector (control). Total intracellular c-jun mRNA and c-jun protein was measured at 6 hr, 24 hr, 48 hr, and 72 hr.
C-jun mRNA and protein levels were further examined in cisplatin-resistant A2780-CP70 cells treated with an IC50 dose of anti-Gli1 shRNA. FIG. 78 depicts mRNA levels (panel A) and protein levels (panel B) in cells at 6, 24, 48, and 72 hours post-treatment.

The subject of test [6] is A2780-CP70 cells. Particulars: cisplatin-resistant A2780-CP70; cited from earlier work.
In test [7] the test system is A2780-CP70 cells. The test is described as follows: Cisplatin cell growth / cell killing curves in A2780-CP70 cells. The format is cell-based, human. Particulars: cisplatin alone (lipofectamine only / control cells). Here is the method:
A2780-CP70 cells were transfected with 0.07 μg/well anti-Gli1 shRNA construct or control. Transfected cells were treated with 0 μM, 10 μM, 30 μM, and 100 μM cisplatin at 24 hr post-transfection. Percent cell growth was determined relative to control cells. […] In another experiment, A2780-CP70 cells were transfected with 0.02 μg/well or 0.07 μg/well anti-Gli1 shRNA construct. Transfected cells were treated with 0 μM, 2 μM, 5 μM, 10 μM, 30 μM, and 50 μM cisplatin at 24 hr post-transfection. Percent cell growth was determined relative to control cells (FIG. 52B).
Control cells were treated with cisplatin only. Percent cell growth was determined relative to control cells.

Several values for one entry are separate records, joined by “and”; a condition that tells them apart may be missing. Identical values can stand only once. Entries after “also recorded” stand apart in the source; their conditions may differ. Like-named read-outs stand apart in the source and are kept apart here.

Take `N.N.[Cl][Pt][Cl]` [cisplatin]: the “peak c-jun phosphorylation over baseline” value in test [1] is 15 fold. For the same compound, in test [2], the “c-jun phosphorylation at Ser63” value is “increases specifically at Ser63 and Ser73”; the “c-jun phosphorylation at Thr91/93” value is on record as “do not change significantly; also recorded: did not significantly change”. Moreover, the “time of highest ERCC1, XPD, XRCC1 mRNA levels after cisplatin exposure” value in test [3] (A2780-CP70, cyclopamine pretreatment vs cisplatin alone) lay within 4 to 6 h. Besides, in test [3] (cells treated with cisplatin), the “increase of ERCC1, XPD, and XRCC1 protein expression levels” value was found to be 5 fold. Also, the “expected rise of ERCC1 (as would XPD and XRCC1)” value in test [3] (cisplatin alone (unpublished data)) was “more than 6 fold”. Also, the “expected increase in ERCC1 mRNA levels” value in test [4] is 6 fold. Further, the “time of peak c-jun level” value in test [5] (IC50 dose of agent) amounted to 6 h. Further, the c-jun protein expression result in test [5] (IC50 dose of cisplatin) was “increased substantial”. For the same compound, in test [6], the IC50 was around 40 µM. In addition, the IC50 in test [7] is 30 µM and 28 µM.
